Experiments:
[1] = test system: replicon RNA transcribed from SCVR; type: cell-based, SARS-CoV-1
[2] = test system: replicon RNA transcribed from HKU1; type: cell-based, Embecovirus
[3] = test system: replicon RNA transcribed from SC2R; type: cell-based, SARS-CoV-2
[4] = test system: replicon RNA transcribed from NOBEVR; assay: microbe, parasite or virus in culture; type: cell-based, Nobecovirus
[5] = test system: replicon RNA transcribed from MERVR; type: cell-based, MERS-CoV
[6] = test system: replicon RNA transcribed from SC2R; assay: microbe, parasite or virus in culture; type: cell-based, SARS-CoV-2; conditions: Severe acute respiratory syndrome coronavirus 2, 48 h, read-out: EC50, inhibition of the replication of replicon RNA transcribed from SC2R
[7] = test system: HCV replicon RNA; assay: HCV subgenomic replicon replication, Renilla luciferase activity; type: cell-based, genotype 1b HCV (1B-4 strain); conditions: Hepatitis C virus; 72 hours, RL activity, FIG. 15B; read-out: EC50, inhibition of the replication of HCV replicon RNA
[8] = Evaluation of cytotoxicity (WST-1); conditions: human, HuH-7.6c cells

With `CN(C)CC#Cc1ccc(OCCCc2sc(N3CCc4cccc(C(=O)Nc5nc6ccccc6s5)c4C3)nc2C(=O)O)c(F)c1` [A-1155463] the “replication of replicon RNA transcribed from SCVR” value (shortened to “replication … from SCVR”) [1] was “inhibited”, the “replication of replicon RNA transcribed from HKU1” value (from here on “replication … from HKU1”) [2] was “inhibited” and the “concentration responsiveness of the replication level of SARS-CoV-2 replicon RNA” value [3] was “inhibited the replication of replicon RNA transcribed from SC2R in a concentration-dependent manner”. For the same molecule, the “replication of replicon RNA transcribed from SC2R” value (“replication … from SC2R” for short) [3] was “inhibited”, the “replication of replicon RNA transcribed from NOBEVR” value [4] was “inhibited” and the “replication of replicon RNA transcribed from MERVR” value (shortened to “replication … from MERVR”) [5] was “inhibited”.
For `Cc1c(-c2ccc(N3CCc4cccc(C(=O)Nc5nc6ccccc6s5)c4C3)nc2C(=O)O)cnn1CC12CC3CC(CC(C3)C1)C2` [A-1331852], the “replication … from SCVR” value [1] was “inhibited”, the EC50 [6] was 1.46 nM and the “replication … from HKU1” value [2] was “inhibited”. For the same molecule, the “replication … from SC2R” value [3] was “inhibited”, the EC50 [7] was 14.8 nM and the “replication of replicon RNA transcribed from NOBEVR” value [4] was “inhibited”. For the same molecule, the “replication … from MERVR” value [5] was “inhibited”.
For `CN(C)CC[C@H](CSc1ccccc1)Nc1ccc(S(=O)(=O)NC(=O)c2ccc(N3CCN(Cc4ccccc4-c4ccc(Cl)cc4)CC3)cc2)cc1[N+](=O)[O-]` [ABT-737], the “replication … from SCVR” value [1] was “inhibited”, the “replication … from HKU1” value [2] was “inhibited” and the “replication … from SC2R” value [3] was “inhibited”. For the same molecule, the “replication of replicon RNA transcribed from NOBEVR” value [4] was “inhibited” and the “replication … from MERVR” value [5] was “inhibited”.
With `CC(C)(C)[C@H](NC(=O)C(F)(F)F)C(=O)N1C[C@H]2[C@@H]([C@H]1C(=O)N[C@H](C#N)C[C@@H]1CCNC1=O)C2(C)C` [PF-07321332] the “replication of replicon RNA in HKU1” value [2] was “did not inhibit” and the “replication of replicon RNA in NOBEVR” value [4] was “did not inhibit”.
In the case of `COc1cc2c(cc1OC)[C@@H](Cc1ccc(Oc3cc(C[C@@H]4c5cc(OC)c(OC)cc5CCN4C)ccc3O)cc1)N(C)CC2` [dauricine], the “replicon RNA replication inhibitory activity against SC2R” value [3] is reported as “replicon RNA replication inhibitory activity” and the “inhibitory activity against the replication of replicon RNA transcribed from NOBEVR” value (shortened to “inhibitory activity … from NOBEVR”) [4] is reported as “strong inhibitory activity”.
For `COc1cc2c(cc1O)[C@@H](Cc1ccc(O)c(Oc3ccc(C[C@@H]4c5cc(OC)c(OC)cc5CCN4C)cc3)c1)N(C)CC2` [daurisoline], the “replicon RNA replication inhibitory activity against SC2R” value [3] was “replicon RNA replication inhibitory activity” and the “inhibitory activity … from NOBEVR” value [4] was “strong inhibitory activity”.
In the case of `Cn1cnc(Cn2c(=O)[nH]/c(=N\c3cc4cn(C)nc4cc3Cl)n(Cc3cc(F)c(F)cc3F)c2=O)n1.O=C(O)/C=C/C(=O)O` [ensitrevir fumarate], the “replication of replicon RNA in HKU1” value [2] is reported as “did not inhibit” and the “replication of replicon RNA in NOBEVR” value [4] is reported as “did not inhibit”.
For `NC(=O)c1nc(F)c[nH]c1=O` [favipiravir], the “replication of replicon RNA in HKU1” value [2] was “did not inhibit” and the “replication of replicon RNA in NOBEVR” value [4] was “did not inhibit”.
In the case of `CC(C)=CCC[C@]1(C)C=Cc2c(O)c3c(c(CC=C(C)C)c2O1)O[C@]12C(=C[C@@H]4C[C@H]1C(C)(C)O[C@@]2(C/C=C(/C)C(=O)O)C4=O)C3=O` [gambogic acid], the “replication … from SC2R” value [3] is reported as “inhibited”.
For `CC1(C)CCC(c2ccc(Cl)cc2)=C(CN2CCN(c3ccc(C(=O)NS(=O)(=O)c4ccc(N[C@H](CCN5CCOCC5)CSc5ccccc5)c(S(=O)(=O)C(F)(F)F)c4)cc3)CC2)C1` [navitoclax], the “replication … from SCVR” value [1] was “inhibited”, the “replication … from HKU1” value [2] was “inhibited” and the “replication … from SC2R” value [3] was “inhibited”. For the same molecule, the “inhibitory activity … from NOBEVR” value [4] was “inhibitory activity”, the “replication of replicon RNA transcribed from NOBEVR” value [4] was “inhibited” and the EC50 ([4]; Nobecovirus, 48 h, read-out: EC50, inhibition of the replication of replicon RNA transcribed from NOBEVR) was 280 nM. For the same molecule, the “replication … from MERVR” value [5] was “inhibited” and the CC50 at 48 h [8] was 18600 nM.
For `CCC(CC)COC(=O)[C@H](C)N[P@](=O)(OC[C@H]1O[C@@](C#N)(c2ccc3c(N)ncnn23)[C@H](O)[C@@H]1O)Oc1ccccc1` [remdesivir], the “replication of replicon RNA in HKU1” value [2] was “did not inhibit” and the “replication of replicon RNA in NOBEVR” value [4] was “did not inhibit”.
In the case of `CC1(C)CCC(CN2CCN(c3ccc(C(=O)NS(=O)(=O)c4ccc(NCC5CCOCC5)c([N+](=O)[O-])c4)c(Oc4cnc5[nH]ccc5c4)c3)CC2)=C(c2ccc(Cl)cc2)C1` [venetoclax], the “replication … from SC2R” value [3] is reported as “did not inhibit”.

— patent EP4678750A1 (priority 2023, dated 2024)
